# Values of other authors as cited in patent publication US20040214861A1, “Compositions of a cyclooxygenase-2 selective inhibitors and 5-HT1B1D antagonists for the treatment and prevention of migraine” (Pharmacia Corporation, priority 2003, published 2004).
# Conditions: at one and two hours after administration; compared with sumatriptan
smiles,measurement,value
CN1CCC[C@@H]1Cc1c[nH]c2ccc(CCS(=O)(=O)c3ccccc3)cc12 [eletriptan],effectiveness after administration,greater effectiveness at one and two hours after administration than sumatriptan
